According to patent publication US12252524B2, “GIP/GLP1 co-agonist compounds” (Eli Lilly and Company, priority 2018, dated 2025):
Numbered stars: 1 amine (or outer) side, 2 acyl side, 3 side chain; on linkers, the order of the positions; unused ones are H or OH. Square brackets hold non-standard residues; d marks the D form. Side chains are listed from the residue outwards. Peptide text beside a SMILES is read from it. * marks the point of attachment. C20 diacid = O=C(O)CCCCCCCCCCCCCCCCCCC(=O)*; αMePhe(2-F) = C[C@](N)(Cc1ccccc1F)C(=O)O; γGlu = O=C(O)[C@H](CCC(=O)[*:2])N[*:1]; 3Pal = N[C@@H](Cc1cccnc1)C(=O)O; 4Pal = N[C@@H](Cc1ccncc1)C(=O)O; αMeL = CC(C)C[C@](C)(N)C(=O)O; AEEA = NCCOCCOCC(=O)O; Aib = CC(C)(N)C(=O)O

Tests used:
human Gcg receptor = target: T1, human Gcg receptor (Homo sapiens, UniProt P47871); assay: [125I]-Glucagon binding (SPA), human Gcg receptor; conditions: read-out: hGLcgR Ki, nM (SEM, n)
T1 construct: expressed in transfected cells; crude membranes
Procedure: (§1) Two methods are used for the preparation of crude cell membranes.
(§2) Method 1: Frozen cell pellets are lysed on ice in hypotonic buffer containing 50 mM Tris HCl, pH 7.5, and Roche Complete™ Protease Inhibitors with EDTA. The cell suspension is disrupted using a glass Potter-Elvehjem homogenizer fitted with a Teflon® pestle for 25 strokes. The homogenate is centrifuged at 4° C. at 1100×g for 10 minutes. The supernatant is collected and stored on ice while the pellets are resuspended in homogenization buffer and rehomogenized as described above. The homogenate is centrifuged at 1100×g for 10 minutes. The second supernatant is combined with the first supernatant and centrifuged at 35000×g for 1 hour at 4° C. The resulting membrane pellet is resuspended in homogenization buffer containing protease inhibitors at approximately 1 to 3 mg/mL, quick frozen in liquid nitrogen and stored as aliquots in a−80° C. freezer until use.
(§3) Method 2: Frozen cell pellets are lysed on ice in hypotonic buffer containing 50 mM Tris HCl, pH 7.5, 1 mM MgCl2, Roche Complete™ EDTA-free Protease Inhibitors and 25 units/ml DNAse I (Invitrogen). The cell suspension is disrupted using a glass Potter-Elvehjem homogenizer fitted with a Teflon® pestle for 20 to 25 strokes. The homogenate is centrifuged at 4° C. at 1800×g for 15 minutes. The supernatant is collected and stored on ice while the pellets are resuspended in homogenization buffer (without DNAse I) and rehomogenized as described above. The homogenate is centrifuged at 1800×g for 15 minutes. The second supernatant is combined with the first supernatant and centrifuged an additional time at 1800×g for 15 minutes. The overall supernatant is then centrifuged at 25000×g for 30 minutes at 4° C. The resulting membrane pellet is resuspended in homogenization buffer (without DNAse I) containing protease inhibitors at approximately 1 to 3 mg/mL and stored as aliquots in a−80° C. freezer until use.
The human Gcg receptor binding assays are performed using a Scintillation Proximity Assay (SPA) format with wheat germ agglutinin (WGA) beads (Perkin Elmer). The binding buffer contains 25 mM 4-(2-hydroxyethyl)-1-piperazineethanesulfonic acid (HEPES), pH 7.4, 2.5 mM CaCl2, 1 mM MgCl2, 0.1% (w/v) bacitracin (Research Products), 0.003% (w/v) Polyoxyethylenesorbitan monolaurate (TWEEN©-20), and Roche Complete™ Protease Inhibitors without EDTA. […] Plates are sealed and mixed on a plate shaker (setting 6) for 1 minute and read with a PerkinElmer Trilux MicroBeta© scintillation counter after 12 hours of incubation/settling time at room temperature.
(§4) Data are analyzed using four-parameter (curve maximum, curve minimum, IC50, Hill slope) nonlinear regression routines (Genedata Screener, version 12.0.4, Genedata AG, Basal, Switzerland). […] Values for Ki are reported as the geometric mean, with error expressed as the standard error of the mean (SEM) and n is equal to the number of independent replicates (determined in assays performed on different days). […] The Ki Ratio is a rapid indication of the apparent affinity of a peptide compared to the native control peptide. […] SEM is only calculated when n=2 or greater non-qualified results exist. Means are expressed as GeoMetric means with the standard error of the mean (SEM) and the number of replicates (n) indicated in parenthesis.

human GIP receptor = target: T2, human GIP receptor (Homo sapiens, UniProt P48546); assay: [125I]-GIP binding (SPA), human GIP receptor; conditions: read-out: hGIPR Ki, nM (SEM, n)
T2 construct: expressed in transfected cells; crude membranes
T2 sequence (P48546 22-466): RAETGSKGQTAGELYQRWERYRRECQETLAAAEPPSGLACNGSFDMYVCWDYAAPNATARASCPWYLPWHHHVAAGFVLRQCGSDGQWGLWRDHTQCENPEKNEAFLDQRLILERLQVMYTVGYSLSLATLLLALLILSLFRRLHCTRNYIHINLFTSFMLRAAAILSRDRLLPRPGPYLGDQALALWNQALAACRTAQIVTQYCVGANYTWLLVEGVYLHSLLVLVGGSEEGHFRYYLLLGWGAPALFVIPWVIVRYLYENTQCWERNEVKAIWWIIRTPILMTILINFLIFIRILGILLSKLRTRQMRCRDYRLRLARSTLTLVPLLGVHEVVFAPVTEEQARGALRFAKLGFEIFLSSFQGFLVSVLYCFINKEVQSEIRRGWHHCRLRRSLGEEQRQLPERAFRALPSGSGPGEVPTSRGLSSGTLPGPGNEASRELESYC
Procedure: as §1, §2, §3
The binding buffer contains 25 mM HEPES, pH 7.4, 2.5 mM CaCl2, 1 mM MgCl2, 0.1% (w/v) bacitracin, 0.003% (w/v) TWEEN©-20, and Roche Complete™ Protease Inhibitors without EDTA. Peptides and GIP are thawed and 3 fold serially diluted in 100% DMSO (10 point concentration response curves). […] Plates are sealed and mixed on a plate shaker (setting 6) for 1 minute and read with a PerkinElmer Trilux MicroBeta© scintillation counter after 2.5 to 12 hours of incubation/settling time at room temperature.
as §4

[1] = target: human GLP-1 receptor (GLP-1R) (Homo sapiens, UniProt P43220); assay: cAMP pharmacological functional assay in presence of casein, hGLP-1R; type: cell-based; conditions: HEK293 cells expressing hGLP-1R, 0.1% Casein, geometric mean; read-out: hGLP1R cAMP Rel EC50 nM (SEM, n)
[2] = target: T3, gastric inhibitory peptide receptor (GIPR) (Homo sapiens, UniProt P48546); assay: cAMP pharmacological functional assay in presence of casein, hGIPR; type: cell-based; conditions: HEK293 cells expressing hGIPR, 0.1% Casein, geometric mean; read-out: hGIPR cAMP Rel EC50 nM (SEM, n)
T3 sequence (P48546 22-466): T2 sequence (P48546 22-466)

human GLP-1R = human GLP-1R (Homo sapiens, UniProt P43220); assay: [125I]-GLP-1 binding (SPA), human GLP-1 receptor; set-up: expressed in transfected cells; crude membranes; conditions: read-out: hGLP1R Ki, (nM) (SEM, n)
Procedure: as §1, §2, §3
The binding buffer contains 25 mM HEPES, pH 7.4, 2.5 mM CaCl2, 1 mM MgCl2, 0.1% (w/v) bacitracin, 0.003% (w/v) TWEEN©-20, and Roche Complete™ Protease Inhibitors without EDTA.
as §4

T1 sequence (P47871 26-477): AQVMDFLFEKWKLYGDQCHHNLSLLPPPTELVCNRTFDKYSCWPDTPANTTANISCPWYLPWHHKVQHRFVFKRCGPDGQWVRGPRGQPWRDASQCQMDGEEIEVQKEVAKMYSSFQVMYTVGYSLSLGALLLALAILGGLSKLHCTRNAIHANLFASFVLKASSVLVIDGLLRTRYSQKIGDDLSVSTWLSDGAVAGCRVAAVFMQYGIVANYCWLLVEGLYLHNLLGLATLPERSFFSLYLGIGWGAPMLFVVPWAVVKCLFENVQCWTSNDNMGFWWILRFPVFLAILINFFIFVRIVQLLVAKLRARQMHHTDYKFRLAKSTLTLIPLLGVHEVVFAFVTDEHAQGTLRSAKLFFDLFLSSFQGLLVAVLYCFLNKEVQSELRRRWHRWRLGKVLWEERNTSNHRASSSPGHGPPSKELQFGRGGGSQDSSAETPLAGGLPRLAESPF
human GLP-1R, sequence (P43220 24-463): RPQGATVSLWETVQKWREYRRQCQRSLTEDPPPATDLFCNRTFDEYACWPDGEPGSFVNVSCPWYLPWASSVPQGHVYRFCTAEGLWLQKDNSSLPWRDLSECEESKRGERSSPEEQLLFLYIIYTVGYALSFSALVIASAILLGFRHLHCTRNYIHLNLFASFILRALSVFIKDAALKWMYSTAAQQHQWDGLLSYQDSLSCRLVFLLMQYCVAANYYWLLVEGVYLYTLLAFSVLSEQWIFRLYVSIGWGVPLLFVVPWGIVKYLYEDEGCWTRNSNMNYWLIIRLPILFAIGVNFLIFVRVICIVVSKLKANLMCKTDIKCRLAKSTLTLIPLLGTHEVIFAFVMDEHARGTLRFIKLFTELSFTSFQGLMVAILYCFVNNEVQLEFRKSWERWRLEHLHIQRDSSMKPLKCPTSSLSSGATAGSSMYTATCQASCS
human GLP-1 receptor (GLP-1R), sequence (P43220 24-463): as above

Row | SMILES | Ki (human Gcg receptor) | Ki (human GIP receptor) | EC50 [1] | EC50 [2] | Ki (human GLP-1R)
1 | CC[C@H](C)[C@H](NC(=O)[C@H](Cc1ccccc1)NC(=O)[C@H](C)NC(=O)C(C)(C)NC(=O)[C@H](CCC(N)=O)NC(=O)[C@H](C)NC(=O)[C@H](CCCCNC(=O)COCCOCCNC(=O)COCCOCCNC(=O)CC[C@H](NC(=O)CCCCCCCCCCCCCCCCCCC(=O)O)C(=O)O)NC(=O)[C@H](CCCCN)NC(=O)[C@H](CC(=O)O)NC(=O)[C@H](CC(C)C)NC(=O)[C@H](CC(C)C)NC(=O)[C@@H](NC(=O)[C@H](CO)NC(=O)[C@H](Cc1ccc(O)cc1)NC(=O)[C@H](CC(=O)O)NC(=O)[C@H](CO)NC(=O)[C@@H](NC(=O)[C@H](Cc1ccccc1)NC(=O)[C@@H](NC(=O)CNC(=O)[C@H](CCC(=O)O)NC(=O)C(C)(C)NC(=O)[C@@H](N)Cc1ccc(O)cc1)[C@@H](C)O)[C@@H](C)O)[C@@H](C)CC)C(=O)N[C@@H](CCC(=O)O)C(=O)N[C@@H](Cc1ccc(O)cc1)C(=O)N[C@@H](CC(C)C)C(=O)N[C@@H](CC(C)C)C(=O)N[C@@H](CCC(=O)O)C(=O)NCC(=O)NCC(=O)N1CCC[C@H]1C(=O)N[C@@H](CO)C(=O)N[C@@H](CO)C(=O)NCC(=O)N[C@@H](C)C(=O)N1CCC[C@H]1C(=O)N1CCC[C@H]1C(=O)N1CCC[C@H]1C(=O)N[C@@H](CO)C(N)=O [Example 6] (H-Y[Aib]EGTFTSDYSILLDKK([AEEA-AEEA-γGlu-C20 diacid])AQ[Aib]AFIEYLLEGGPSSGAPPPS-NH2) | 55.8 nM | 0.0835 nM | 0.374 nM | 0.0899 nM | 6.71 nM
2 | CC[C@H](C)[C@H](NC(=O)[C@H](CC(C)C)NC(=O)[C@H](Cc1ccc(O)cc1)NC(=O)[C@@H](CCC(=O)O)NC(=O)[C@@H](NC(=O)[C@H](Cc1ccccc1)NC(=O)[C@H](CCC(=O)O)NC(=O)C(C)(C)NC(=O)[C@H](CCC(N)=O)NC(=O)[C@H](C)NC(=O)[C@H](CCCCNC(=O)COCCOCCNC(=O)COCCOCCNC(=O)CC[C@H](NC(=O)CCCCCCCCCCCCCCCCCCC(=O)O)C(=O)O)NC(=O)[C@H](CCC(=O)O)NC(=O)[C@H](CC(=O)O)NC(=O)[C@H](CC(C)C)NC(=O)[C@](C)(CC(C)C)NC(=O)[C@@H](NC(=O)[C@H](CO)NC(=O)[C@H](Cc1cccnc1)NC(=O)[C@H](CC(=O)O)NC(=O)[C@H](CO)NC(=O)[C@@H](NC(=O)[C@](C)(Cc1ccccc1F)NC(=O)[C@@H](NC(=O)CNC(=O)[C@H](CCC(=O)O)NC(=O)C(C)(C)NC(=O)[C@@H](N)Cc1ccc(O)cc1)[C@@H](C)O)[C@@H](C)O)[C@@H](C)CC)[C@@H](C)CC)C(=O)N[C@@H](CCC(=O)O)C(=O)NCC(=O)NCC(=O)N1CCC[C@H]1C(=O)N[C@@H](CO)C(=O)N[C@@H](CO)C(=O)NCC(=O)N[C@@H](C)C(=O)N1CCC[C@H]1C(=O)N1CCC[C@H]1C(=O)N1CCC[C@H]1C(=O)N[C@@H](CO)C(N)=O [Example 181] (H-Y[Aib]EGT[αMePhe(2-F)]TSD[3Pal]SI[αMeL]LDEK([AEEA-AEEA-γGlu-C20 diacid])AQ[Aib]EFI[dE]YLIEGGPSSGAPPPS-NH2) | 413 nM | 0.145 nM | – | – | 7.28 nM
3 | CC[C@H](C)[C@H](NC(=O)[C@H](CC(C)C)NC(=O)[C@H](Cc1ccc(O)cc1)NC(=O)[C@@H](CCC(=O)O)NC(=O)[C@@H](NC(=O)[C@H](Cc1ccccc1)NC(=O)[C@H](CCC(=O)O)NC(=O)C(C)(C)NC(=O)[C@H](CCC(N)=O)NC(=O)[C@H](C)NC(=O)[C@H](CCCCNC(=O)COCCOCCNC(=O)COCCOCCNC(=O)CC[C@H](NC(=O)CCCCCCCCCCCCCCCCCCC(=O)O)C(=O)O)NC(=O)[C@H](CCC(=O)O)NC(=O)[C@H](CC(=O)O)NC(=O)[C@H](CC(C)C)NC(=O)[C@](C)(CC(C)C)NC(=O)[C@@H](NC(=O)[C@H](CO)NC(=O)[C@H](Cc1ccncc1)NC(=O)[C@H](CC(=O)O)NC(=O)[C@H](CO)NC(=O)[C@@H](NC(=O)[C@](C)(Cc1ccccc1F)NC(=O)[C@@H](NC(=O)CNC(=O)[C@H](CCC(=O)O)NC(=O)C(C)(C)NC(=O)[C@@H](N)Cc1ccc(O)cc1)[C@@H](C)O)[C@@H](C)O)[C@@H](C)CC)[C@@H](C)CC)C(=O)N[C@@H](CCC(=O)O)C(=O)NCC(=O)NCC(=O)N1CCC[C@H]1C(=O)N[C@@H](CO)C(=O)N[C@@H](CO)C(=O)NCC(=O)N[C@@H](C)C(=O)N1CCC[C@H]1C(=O)N1CCC[C@H]1C(=O)N1CCC[C@H]1C(=O)N[C@@H](CO)C(N)=O [Example 182] (H-Y[Aib]EGT[αMePhe(2-F)]TSD[4Pal]SI[αMeL]LDEK([AEEA-AEEA-γGlu-C20 diacid])AQ[Aib]EFI[dE]YLIEGGPSSGAPPPS-NH2; N-terminus assumed) | 565 nM | 0.0669 nM | – | 0.0442 nM | 4.64 nM
4 | CC[C@H](C)[C@H](NC(=O)[C@H](CC(C)C)NC(=O)[C@H](Cc1ccc(O)cc1)NC(=O)[C@@H](CCC(=O)O)NC(=O)[C@@H](NC(=O)[C@H](Cc1ccccc1)NC(=O)[C@H](CCC(=O)O)NC(=O)C(C)(C)NC(=O)[C@H](CCC(N)=O)NC(=O)[C@H](C)NC(=O)[C@H](CCCCNC(=O)COCCOCCNC(=O)COCCOCCNC(=O)CC[C@H](NC(=O)CCCCCCCCCCCCCCCCCCC(=O)O)C(=O)O)NC(=O)[C@H](CCC(=O)O)NC(=O)[C@H](CC(=O)O)NC(=O)[C@H](CC(C)C)NC(=O)[C@](C)(CC(C)C)NC(=O)[C@@H](NC(=O)[C@H](CO)NC(=O)[C@H](CC(C)C)NC(=O)[C@H](CC(=O)O)NC(=O)[C@H](CO)NC(=O)[C@@H](NC(=O)[C@](C)(Cc1ccccc1F)NC(=O)[C@@H](NC(=O)CNC(=O)[C@H](CCC(=O)O)NC(=O)C(C)(C)NC(=O)[C@@H](N)Cc1ccc(O)cc1)[C@@H](C)O)[C@@H](C)O)[C@@H](C)CC)[C@@H](C)CC)C(=O)N[C@@H](CCC(=O)O)C(=O)NCC(=O)NCC(=O)N1CCC[C@H]1C(=O)N[C@@H](CO)C(=O)N[C@@H](CO)C(=O)NCC(=O)N[C@@H](C)C(=O)N1CCC[C@H]1C(=O)N1CCC[C@H]1C(=O)N1CCC[C@H]1C(=O)N[C@@H](CO)C(N)=O [Example 183] (H-Y[Aib]EGT[αMePhe(2-F)]TSDLSI[αMeL]LDEK([AEEA-AEEA-γGlu-C20 diacid])AQ[Aib]EFI[dE]YLIEGGPSSGAPPPS-NH2) | 304 nM | 0.0869 nM | – | 0.0615 nM | 4.11 nM
